Literature values, collected in patent US20030235609A1, “Use of cholinesterase antagonists to treat insulin resistance” (priority 2002, published 2003).

System: muscarinic receptor
Details: cats

| SMILES | Dose achieving a similar degree of insulin resistance | Dose required to produce a full insulin resistance (administered into the portal vein) |
| --- | --- | --- |
| CN1CCN(CC(=O)N2c3ccccc3C(=O)Nc3cccnc32)CC1 [pirenzepine] | 10^7 mmol/kg | – |
| COc1ccccc1CNCCCCCCNCCCCCCCCNCCCCCCNCc1ccccc1OC [methoctramine] | – | 10^−6 μmol/kg |
